Results as given in publication PMC8044546, “Mycobacterium tuberculosis Thymidylyltransferase RmlA Is Negatively Regulated by Ser/Thr Protein Kinase PknB” (Frontiers in Microbiology, 2021).

Key:
[1] = target: RmlA (Mycobacterium tuberculosis, UniProt P9WH13)
[2] = target: PknH (Mycobacterium tuberculosis, UniProt P9WI71)
[3] = target: PknD (Mycobacterium tuberculosis, UniProt P9WI79)
Chain of PknD (P9WI79 2-664): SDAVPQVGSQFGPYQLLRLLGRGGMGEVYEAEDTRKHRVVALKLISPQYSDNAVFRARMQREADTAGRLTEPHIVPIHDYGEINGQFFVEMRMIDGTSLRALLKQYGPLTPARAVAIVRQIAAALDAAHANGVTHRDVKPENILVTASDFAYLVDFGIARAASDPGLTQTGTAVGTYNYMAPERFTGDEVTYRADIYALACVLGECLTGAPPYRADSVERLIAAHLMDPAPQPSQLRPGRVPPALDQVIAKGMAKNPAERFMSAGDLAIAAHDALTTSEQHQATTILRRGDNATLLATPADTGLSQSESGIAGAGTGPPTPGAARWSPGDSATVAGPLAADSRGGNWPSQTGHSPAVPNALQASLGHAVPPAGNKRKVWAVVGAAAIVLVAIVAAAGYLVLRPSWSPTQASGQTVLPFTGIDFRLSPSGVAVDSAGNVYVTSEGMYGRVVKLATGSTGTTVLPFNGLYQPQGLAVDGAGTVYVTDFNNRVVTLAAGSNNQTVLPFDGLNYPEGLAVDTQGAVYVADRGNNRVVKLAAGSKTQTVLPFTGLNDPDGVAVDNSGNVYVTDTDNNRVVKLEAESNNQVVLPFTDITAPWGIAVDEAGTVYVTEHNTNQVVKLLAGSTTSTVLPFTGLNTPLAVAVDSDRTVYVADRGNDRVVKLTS

Chain of RmlA (P9WH13 whole entry): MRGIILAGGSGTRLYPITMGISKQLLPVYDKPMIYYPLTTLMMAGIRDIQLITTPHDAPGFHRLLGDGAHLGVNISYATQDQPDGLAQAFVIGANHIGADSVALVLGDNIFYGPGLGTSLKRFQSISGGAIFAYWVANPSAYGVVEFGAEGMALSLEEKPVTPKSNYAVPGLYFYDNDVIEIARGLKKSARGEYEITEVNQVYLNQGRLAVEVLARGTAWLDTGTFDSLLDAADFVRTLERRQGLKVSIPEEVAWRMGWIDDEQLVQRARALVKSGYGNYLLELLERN
Chain of PknH (P9WI71 whole entry): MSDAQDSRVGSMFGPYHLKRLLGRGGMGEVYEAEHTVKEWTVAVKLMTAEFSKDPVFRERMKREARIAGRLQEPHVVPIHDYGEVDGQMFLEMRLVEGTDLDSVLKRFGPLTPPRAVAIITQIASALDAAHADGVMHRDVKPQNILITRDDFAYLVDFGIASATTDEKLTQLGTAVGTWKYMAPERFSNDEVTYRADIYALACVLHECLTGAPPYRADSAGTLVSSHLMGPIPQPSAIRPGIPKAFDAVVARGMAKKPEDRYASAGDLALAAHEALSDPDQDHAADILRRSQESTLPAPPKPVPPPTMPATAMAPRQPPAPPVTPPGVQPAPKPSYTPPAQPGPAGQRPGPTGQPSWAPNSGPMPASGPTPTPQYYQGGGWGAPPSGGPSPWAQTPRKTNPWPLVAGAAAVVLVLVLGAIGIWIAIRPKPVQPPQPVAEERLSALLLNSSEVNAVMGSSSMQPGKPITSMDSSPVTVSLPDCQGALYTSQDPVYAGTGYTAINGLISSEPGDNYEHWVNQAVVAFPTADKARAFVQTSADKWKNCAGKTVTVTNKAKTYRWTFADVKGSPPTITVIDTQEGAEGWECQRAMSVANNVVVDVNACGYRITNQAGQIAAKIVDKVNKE

Structure (SMILES) | malachite green phosphate assay coupled with pyrophosphatase [1] | autophosphorylation assay [2] | autophosphorylation assay [3]
O=P(O)(O)O[C@H]1O[C@H](CO)[C@@H](O)[C@H](O)[C@H]1O [D-Glc-1-P] | ability of RmlA to convert D-Glc-1-P and dTTP to D-Glc-dTDP and PPi |  | 
Cc1cn([C@H]2C[C@H](O)[C@@H](COP(=O)(O)OP(=O)(O)OP(=O)(O)O)O2)c(=O)[nH]c1=O [dTTP] | ability of RmlA to convert D-Glc-1-P and dTTP to D-Glc-dTDP and PPi |  | 
Nc1ncnc2c1ncn2[C@@H]1O[C@H](COP(=O)(O)OP(=O)(O)OP(=O)(O)O)[C@@H](O)[C@H]1O [[γ-^32P]ATP] |  | three kinases, i.e., PknB, PknD, and PknH, demonstrated high kinase activities | three kinases, i.e., PknB, PknD, and PknH, demonstrated high kinase activities
